Experimental data taken from patent US10426785B2, “C-19 steroids for inhibiting neovascularization” (priority 2014, dated 2019).

Key:
Assay type in all cases: cell-based, human
HUVEC cells [1] = experiment: Transwell migration assay of HUVEC cells with VEGF as attractant; conditions: 48 hrs, VEGF as attractant in lower chamber, compared to control, FIG. 2B
Procedure: (§1) Briefly, human umbilical vein endothelial cells (in the following HUVEC) were freshly isolated out of human umbilical cords by methods known in the art and were used in the experiments from passage p4 up to passage p10 to prevent any artefacts originating from in vitro changes of the cells.
(§2) In all experiments, the C-19 steroid compound 4-OHT was added to the cells in the indicated concentration in EGM-2 medium (Lonza) in order to avoid any artefacts originating from exogenous factors contained in the medium.
A prerequisite of angiogenesis is the capability of endothelial cells to migrate into the tissue. This process is observed in wound healing and also in the process of tumor growth. Endothelial cells migrate into the tissue along a gradient of factors such as VEGF. This behavior can be studied in an in vitro model of migration using a transwell system, as e.g. apparent from FIG. 2A.
For studying the migration of HUVEC cells using the transwell system with PET-membranes having a 3 μm pore size (24-wells w/o fibronectin-coating), HUVEC cells in different cell numbers were placed in the upper compartment, whereas the attractant was placed in the lower compartment. The number of cells on the attractant site of the membrane was compared with the number of cells visible in a control system (buffer control) and with the attractant (VEGF) in the presence of 4-OHT. […]

HUVEC cells [2] = experiment: Tube migration (tube formation) assay of HUVEC cells on matrigel; conditions: HUVEC on matrigel (7 mg/ml), 10 μM/L, FIG. 4
Procedure: as §1, §2
After migration into the tissue of a scratch, HUVEC cells change their growth characteristics and form microvessels. This effect can be assessed microscopically.
HUVEC cells were seeded on matrigel (7 mg/ml). Cell suspensions as well as gels containing 10 μM/L 4-OHT were added upon seeding, It was allowed to form branching points during adherence onto this surface mimicking basal membrane character. Tube formation was analyzed microscopically after 12 and 48 hours.
When the human endothelial cells were subjected onto matrigel pads, branching points as one marker of tube formation are inhibited by 4-OHT as compared to untreated controls (red arrows).

HUVEC cells [3] = experiment: Wound healing (scratch) assay of HUVEC cells; conditions: 10 μM, FIG. 3
Procedure: as §1, §2
Another method for studying cell migration is the wound healing (scratch) assay. This assay resembles the events occurring in an acute wound healing process. By release of factors from the wound area endothelial cells migrate into the scratch area, which shall resemble the process of healing and closure of the wound by vascularization and later scar formation.
In summary, HUVEC cells were seeded in a 12-well plate and allow to grow until reaching confluency. Subsequently, a scratch was set, thereby removing the cells within the scratch area. The cells were exposed to 10 μM of 4-OHT and the migration of endothelial cells into the scratch area was monitored microscopically using a schedule from 2 up to 48 hrs, depending on the individual experimental design. […]

HUVEC cells [4] = experiment: WST-1 proliferation assay of HUVEC cells; conditions: 1, 2 and 5 μM; all 3 HUVEC cell cultures; p<0.001 (t-test); FIG. 1A
Procedure: All experiments were additionally run in several replicates (one HUVEC in different passages as well as different preparations.
For determining the proliferation rates, WST-1 tests were performed. Essentially, 1000 HUVEC cells/well were seeded in a 96-well plate and exposed to the indicated concentrations of 4-OHT (also denoted by lab code CR 1447) for 5 days. Inhibition of proliferation was quantified by measuring the enzymatic cleavage of the tetrazolium salt WST-1 to formazan by cellular mitochondrial dehydrogenases as a readout for cell viability, wherein cell viability of treated cells is expressed as the percentage (%) of untreated controls containing only the solvent in appropriate concentrations.
Cells were grown and subcultured in Endothelial Cell Growth medium (EGM) for 3 and 5 days, respectively.

Structure (SMILES): C[C@]12CC[C@H]3[C@@H](CCC4=C(O)C(=O)CC[C@@]43C)[C@@H]1CC[C@@H]2O [4-OHT, 4-hydroxytestosterone]
- migration of cells into the membrane (transwell) (HUVEC cells [1]): significantly inhibits
- tube formation of human endothelial cells (HUVEC cells [2]; analyzed after 12 and 48 hours): significantly inhibited
- branching of the cells (branching points as marker of tube formation) (HUVEC cells [2]; compared to untreated controls): markedly inhibited
- migration of HUVEC cells into the scratch area compared to untreated control cells (HUVEC cells [3]; after 24 h): clear reduction
- endothelial cell migration (wound-healing / scratch assay) (HUVEC cells [3]; monitored 2 up to 48 hrs): effectively inhibited
- growth inhibition (WST-1 cell viability vs untreated controls) (HUVEC cells [4]): highly significant
